# Test results as given in patent publication US20240166635A1, “AMINOHETEROARYL KINASE INHIBITORS” (Anrui Biomedical Technology (Guangzhou) Co.,Ltd., priority 2020, published 2024).
# Columns and labels:
# Format in all cases: biochemical
# CDK2/CyclinE1 = CDK2/CyclinE1 (Homo sapiens (Human), UniProt P24941); experiment: CDK2/CyclinE1 kinase inhibitory activity (Caliper mobility shift); conditions: for IC50: read-out: CDK2/Cyclin El IC50
# CDK1/CyclinB = CDK1/CyclinB (Homo sapiens (Human), UniProt P06493); experiment: CDK1/CyclinB kinase inhibitory activity (Caliper mobility shift); conditions: read-out: CDK1/Cyclin B1 IC50
# Chain of CDK1/CyclinB (P06493 whole entry): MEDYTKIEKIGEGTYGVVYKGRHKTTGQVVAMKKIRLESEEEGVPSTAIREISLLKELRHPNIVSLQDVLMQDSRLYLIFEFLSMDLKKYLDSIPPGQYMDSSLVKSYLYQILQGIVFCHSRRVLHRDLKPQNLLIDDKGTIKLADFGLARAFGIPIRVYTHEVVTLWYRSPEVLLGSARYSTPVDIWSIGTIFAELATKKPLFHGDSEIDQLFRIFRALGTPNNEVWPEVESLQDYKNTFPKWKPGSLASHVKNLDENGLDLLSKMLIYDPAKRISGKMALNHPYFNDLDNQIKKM
# Chain of CDK1/CyclinB (P14635 whole entry partner): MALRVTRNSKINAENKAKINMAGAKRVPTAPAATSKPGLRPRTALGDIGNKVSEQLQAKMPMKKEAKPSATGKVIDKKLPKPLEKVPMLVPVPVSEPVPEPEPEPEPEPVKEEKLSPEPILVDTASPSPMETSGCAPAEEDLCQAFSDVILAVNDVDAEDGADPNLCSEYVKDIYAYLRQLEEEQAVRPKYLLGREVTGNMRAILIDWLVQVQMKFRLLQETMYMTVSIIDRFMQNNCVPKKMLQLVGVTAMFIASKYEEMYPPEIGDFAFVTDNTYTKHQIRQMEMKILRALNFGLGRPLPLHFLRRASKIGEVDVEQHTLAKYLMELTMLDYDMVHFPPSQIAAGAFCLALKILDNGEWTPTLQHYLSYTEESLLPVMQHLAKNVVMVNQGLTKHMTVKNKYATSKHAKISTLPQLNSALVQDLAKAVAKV
# CDK4/Cyclin D1 = CDK4/Cyclin D1 (Homo sapiens (Human), UniProt P11802); experiment: CDK4/CyclinD1 kinase inhibitory activity (Caliper mobility shift)
# Chain of CDK4/Cyclin D1 (P11802 whole entry): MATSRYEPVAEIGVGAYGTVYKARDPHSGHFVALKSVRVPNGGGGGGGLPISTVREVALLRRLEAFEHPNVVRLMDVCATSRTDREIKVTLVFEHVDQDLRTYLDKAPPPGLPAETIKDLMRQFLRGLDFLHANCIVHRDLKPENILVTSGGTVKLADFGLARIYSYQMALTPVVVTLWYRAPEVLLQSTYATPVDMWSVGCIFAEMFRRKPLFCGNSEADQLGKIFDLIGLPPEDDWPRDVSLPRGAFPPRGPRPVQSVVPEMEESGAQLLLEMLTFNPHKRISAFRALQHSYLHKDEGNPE
# Chain of CDK4/Cyclin D1 (P24385 whole entry partner): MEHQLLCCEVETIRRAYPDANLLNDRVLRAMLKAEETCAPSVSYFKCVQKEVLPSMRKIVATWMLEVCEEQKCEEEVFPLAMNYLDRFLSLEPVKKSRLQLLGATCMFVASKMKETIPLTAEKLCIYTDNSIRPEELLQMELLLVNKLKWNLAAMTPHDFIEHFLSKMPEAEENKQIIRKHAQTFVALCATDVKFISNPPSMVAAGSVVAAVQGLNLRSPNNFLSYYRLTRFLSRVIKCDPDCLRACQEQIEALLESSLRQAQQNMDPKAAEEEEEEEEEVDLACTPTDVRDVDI
# CDK6/CyclinD1 = CDK6/CyclinD1 (Homo sapiens (Human), UniProt Q00534); experiment: CDK6/CyclinD1 kinase inhibitory activity (Caliper mobility shift); conditions: read-out: CDK6/Cyclin D1 IC50
# Chain of CDK6/CyclinD1 (Q00534 whole entry): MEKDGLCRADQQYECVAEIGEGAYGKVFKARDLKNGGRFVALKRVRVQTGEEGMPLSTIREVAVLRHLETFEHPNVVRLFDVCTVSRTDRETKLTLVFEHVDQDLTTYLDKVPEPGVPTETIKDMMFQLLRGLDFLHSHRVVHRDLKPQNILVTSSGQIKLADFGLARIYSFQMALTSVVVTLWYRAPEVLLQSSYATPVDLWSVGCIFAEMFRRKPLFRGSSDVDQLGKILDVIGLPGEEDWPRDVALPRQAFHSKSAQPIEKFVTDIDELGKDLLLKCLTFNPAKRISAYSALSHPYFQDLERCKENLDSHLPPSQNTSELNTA
# Chain of CDK6/CyclinD1 (P24385 whole entry partner): as the sequence (P24385 whole entry partner) above
# CDK7/CyclinH/MAT1 = CDK7/CyclinH/MAT1 (Homo sapiens (Human), UniProt P50613); experiment: CDK7/CyclinH/MAT1 kinase inhibitory activity (Caliper mobility shift)
# Chain of CDK7/CyclinH/MAT1 (P50613 whole entry): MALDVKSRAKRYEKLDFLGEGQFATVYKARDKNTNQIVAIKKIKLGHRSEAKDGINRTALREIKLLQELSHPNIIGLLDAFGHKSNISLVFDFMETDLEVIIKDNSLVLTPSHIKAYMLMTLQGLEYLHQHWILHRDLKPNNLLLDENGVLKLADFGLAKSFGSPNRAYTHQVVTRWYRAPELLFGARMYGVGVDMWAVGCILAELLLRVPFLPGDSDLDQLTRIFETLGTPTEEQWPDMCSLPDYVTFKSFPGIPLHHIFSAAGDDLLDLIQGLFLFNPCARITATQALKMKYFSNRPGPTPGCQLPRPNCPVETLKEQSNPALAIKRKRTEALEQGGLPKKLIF
# Chain of CDK7/CyclinH/MAT1 (P51946 whole entry partner): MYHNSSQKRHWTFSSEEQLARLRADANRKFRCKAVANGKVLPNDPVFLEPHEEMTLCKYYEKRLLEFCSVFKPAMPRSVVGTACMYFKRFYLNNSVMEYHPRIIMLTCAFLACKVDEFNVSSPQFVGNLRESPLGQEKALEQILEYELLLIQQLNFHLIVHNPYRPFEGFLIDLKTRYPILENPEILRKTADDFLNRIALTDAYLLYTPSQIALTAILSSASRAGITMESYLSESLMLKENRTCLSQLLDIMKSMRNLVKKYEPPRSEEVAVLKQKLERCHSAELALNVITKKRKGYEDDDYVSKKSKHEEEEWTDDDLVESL
# Chain of CDK7/CyclinH/MAT1 (P51948 whole entry partner): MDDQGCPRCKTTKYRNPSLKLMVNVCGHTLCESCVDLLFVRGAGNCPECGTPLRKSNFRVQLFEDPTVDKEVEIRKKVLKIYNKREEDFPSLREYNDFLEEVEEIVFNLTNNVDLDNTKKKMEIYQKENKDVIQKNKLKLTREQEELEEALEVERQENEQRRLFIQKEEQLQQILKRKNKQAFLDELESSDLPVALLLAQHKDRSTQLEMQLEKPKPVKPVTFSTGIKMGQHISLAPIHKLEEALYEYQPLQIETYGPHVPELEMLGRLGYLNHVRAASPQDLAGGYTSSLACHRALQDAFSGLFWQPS
# CDK9/CyclinT1 = CDK9/CyclinT1 (Homo sapiens (Human), UniProt P50750); experiment: CDK9/CyclinT1 kinase inhibitory activity (Caliper mobility shift); conditions: read-out: CDK9/Cyclin T1 IC50
# Chain of CDK9/CyclinT1 (P50750 whole entry): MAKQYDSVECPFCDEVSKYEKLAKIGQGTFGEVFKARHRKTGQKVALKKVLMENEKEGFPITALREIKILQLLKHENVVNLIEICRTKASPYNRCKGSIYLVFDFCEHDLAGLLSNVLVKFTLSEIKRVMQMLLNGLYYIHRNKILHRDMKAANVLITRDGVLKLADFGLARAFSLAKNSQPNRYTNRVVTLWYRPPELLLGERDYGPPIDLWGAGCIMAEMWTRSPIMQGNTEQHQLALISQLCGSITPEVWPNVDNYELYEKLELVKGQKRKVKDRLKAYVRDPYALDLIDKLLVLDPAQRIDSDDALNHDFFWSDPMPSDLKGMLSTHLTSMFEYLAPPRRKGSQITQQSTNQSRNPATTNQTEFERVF
# Chain of CDK9/CyclinT1 (O60563 whole entry partner): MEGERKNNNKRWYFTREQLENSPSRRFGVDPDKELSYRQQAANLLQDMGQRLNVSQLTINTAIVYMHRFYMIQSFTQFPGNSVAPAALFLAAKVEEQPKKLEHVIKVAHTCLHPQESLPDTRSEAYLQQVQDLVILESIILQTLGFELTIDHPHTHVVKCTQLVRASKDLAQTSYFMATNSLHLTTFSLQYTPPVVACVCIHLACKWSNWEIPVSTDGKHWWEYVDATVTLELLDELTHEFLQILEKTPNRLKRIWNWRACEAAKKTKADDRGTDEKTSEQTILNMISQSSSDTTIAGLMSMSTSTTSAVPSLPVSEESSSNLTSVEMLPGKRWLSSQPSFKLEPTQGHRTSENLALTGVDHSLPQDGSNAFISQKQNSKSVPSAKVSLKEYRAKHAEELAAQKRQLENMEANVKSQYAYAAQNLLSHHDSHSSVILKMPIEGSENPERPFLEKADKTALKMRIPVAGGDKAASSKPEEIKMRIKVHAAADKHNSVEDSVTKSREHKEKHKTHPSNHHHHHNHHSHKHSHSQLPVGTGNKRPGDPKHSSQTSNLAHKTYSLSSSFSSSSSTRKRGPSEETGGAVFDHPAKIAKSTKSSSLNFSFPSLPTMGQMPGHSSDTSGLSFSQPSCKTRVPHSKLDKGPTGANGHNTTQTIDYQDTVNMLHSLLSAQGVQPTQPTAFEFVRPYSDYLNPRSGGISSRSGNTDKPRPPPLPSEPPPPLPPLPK
Structure (SMILES),IC50 (CDK2/CyclinE1) [nM],IC50 (CDK1/CyclinB) [nM],IC50 (CDK4/Cyclin D1) [nM],IC50 (CDK6/CyclinD1) [nM],IC50 (CDK7/CyclinH/MAT1) [nM],IC50 (CDK9/CyclinT1) [nM],selectivity over CDK1 (CDK2/CyclinE1; inhibiting CDK2 over CDK1)
CC1(COc2nc(NC3CCN(S(=O)(=O)CCO)CC3)ncc2C#N)CCCC1 [Example 57],< 10,< 10,< 10,< 10,100 to 1000,10 to 100,
"CC1(O)CCCC1Oc1nc(NC2CCN(S(=O)(=O)CC3CCOC3)CC2)ncc1C#N (single isomer, unassigned) [Example 40a]",< 10,10 to 100,< 10,< 10,100 to 1000,100 to 1000,
"Cn1cc(S(=O)(=O)N2CCC(Nc3ncc(C#N)c(OC4CCCC4(C)O)n3)CC2)cn1 (single isomer, unassigned) [Example 48a]",< 10,< 10,< 10,< 10,10 to 100,100 to 1000,
"Cn1cc(S(=O)(=O)N2CCC(Nc3ncc(C#N)c(O[C@@H]4CCC(F)(F)C[C@]4(C)O)n3)CC2)cn1 (relative stereo) [Example 7a, cis-4-((4,4-difluoro-2-hydroxy-2-methylcyclohexyl)oxy)-2-((1-((1-methyl-1H-pyrazol-4-yl)sulfonyl)piperidin-4-yl)amino)pyrimidine-5-carbonitrile]",< 10,< 10,< 10,< 10,10 to 100,100 to 1000,
Cn1cc(S(=O)(=O)N2CCC(Nc3ncc(C#N)c(OC4CC5(CCC5)C4)n3)CC2)cn1 [Example 59],< 10,10 to 100,< 10,10 to 100,100 to 1000,100 to 1000,
CNS(=O)(=O)c1ccc(Nc2ncc(C#N)c(OC3CCC[C@H]3O)n2)cc1 (mixture of isomers) [Example 26],< 10,100 to 1000,100 to 1000,100 to 1000,≥ 1000,≥ 1000,
"C[C@]1(O)COC[C@H]1Oc1nc(NC2CCN(S(C)(=O)=O)CC2)ncc1C(F)(F)F (relative stereo) [Example 104a, cis-3-methyl-4-((2-((1-(methylsulfonyl)piperidin-4-yl)amino)-5-(trifluoromethyl)pyrimidin-4-yl)oxy)tetrahydrofuran-3-ol]",< 10,10 to 100,10 to 100,10 to 100,10 to 100,100 to 1000,
Cc1cccc(-c2nc(Nc3ccc(S(N)(=O)=O)cc3)ncc2C#N)c1 [Example 94],< 10,10 to 100,10 to 100,100 to 1000,≥ 1000,10 to 100,
COCCS(=O)(=O)N1CCC(Nc2ncc(C#N)c(OCC3(C)CCCC3)n2)CC1 [Example 58],< 10,10 to 100,< 10,10 to 100,100 to 1000,100 to 1000,
"CC1(O)CC(F)(F)CCC1Oc1nc(NC2CCN(S(C)(=O)=O)CC2)ncc1C#N (single isomer, unassigned) [Example 47b]",100 to 1000,≥ 1000,100 to 1000,100 to 1000,≥ 1000,≥ 1000,
N#Cc1cnc(Nc2ccc(S(N)(=O)=O)cc2)nc1OCC1CCC1 [Example 9],< 10,10 to 100,10 to 100,10 to 100,≥ 1000,100 to 1000,more than 30 fold
N#Cc1cnc(Nc2ccc(S(N)(=O)=O)cc2)nc1-c1cccc(O)c1 [Example 98],< 10,10 to 100,10 to 100,10 to 100,≥ 1000,10 to 100,
"N#Cc1cnc(Nc2ccc(S(N)(=O)=O)cc2)nc1N1CCCCC1 [Example 65, 4-((5-cyano-4-(piperidin-1-yl)pyrimidin-2-yl)amino) benzenesulfonamide]",< 10,10 to 100,10 to 100,100 to 1000,≥ 1000,100 to 1000,
Cn1cc(S(=O)(=O)N2CCC(Nc3ncc(C#N)c(OCC4(C)CCCC4)n3)CC2)cn1 [Example 62],< 10,< 10,< 10,10 to 100,100 to 1000,100 to 1000,
"N#Cc1cnc(Nc2ccc(S(=O)(=O)NC3CC(F)C3)cc2)nc1OC1CCCCC1O (single isomer, unassigned) [Example 31a]",< 10,10 to 100,10 to 100,100 to 1000,≥ 1000,100 to 1000,
Cn1cc(S(=O)(=O)N2CCC(Nc3ncc(C#N)c(OCC4(C)CC(F)(F)C4)n3)CC2)cn1 [Example 61],< 10,10 to 100,< 10,10 to 100,100 to 1000,100 to 1000,
N#Cc1cnc(Nc2ccc(S(N)(=O)=O)cc2)nc1-c1cccc(C2CC2)c1 [Example 96],10 to 100,100 to 1000,10 to 100,≥ 1000,≥ 1000,100 to 1000,

# Next, values leading:
IC50 (CDK2/CyclinE1) [nM],IC50 (CDK1/CyclinB) [nM],IC50 (CDK4/Cyclin D1) [nM],IC50 (CDK6/CyclinD1) [nM],IC50 (CDK7/CyclinH/MAT1) [nM],IC50 (CDK9/CyclinT1) [nM],selectivity over CDK1 (CDK2/CyclinE1; inhibiting CDK2 over CDK1),Structure (SMILES)
< 10,100 to 1000,≥ 1000,100 to 1000,≥ 1000,100 to 1000,,"Cc1cnc(Nc2ccc(S(=O)(=O)NC3CC3)cc2)nc1OC1CCCC1O (single isomer, unassigned) [Example 146a]"
< 10,100 to 1000,≥ 1000,100 to 1000,≥ 1000,100 to 1000,,"[2H]C([2H])([2H])NS(=O)(=O)c1ccc(Nc2ncc(C)c(OC3CCCC3O)n2)cc1 (single isomer, unassigned) [Example 148a]"
< 10,10 to 100,100 to 1000,10 to 100,100 to 1000,10 to 100,,"NS(=O)(=O)c1ccc(Nc2ncc(C(F)(F)F)c(O[C@@H]3CCC[C@@H]3O)n2)cc1 (single isomer, unassigned) [Example 99a, cis-4-((4-((2-hydroxycyclopentyl)oxy)-5-(trifluoromethyl)pyrimidin-2-yl)amino)benzenesulfonamide]"
< 10,100 to 1000,100 to 1000,100 to 1000,100 to 1000,100 to 1000,,"Cc1cnc(Nc2ccc(S(N)(=O)=O)cc2)nc1O[C@@H]1CCC[C@@H]1O (single isomer, unassigned) [Example 132a, cis-4-((4-((2-hydroxycyclopentyl)oxy)-5-methylpyrimidin-2-yl)amino)benzenesulfonamide]"
< 10,10 to 100,100 to 1000,100 to 1000,100 to 1000,100 to 1000,,"O=S(=O)(NC1CC1)c1ccc(Nc2ncc(C(F)(F)F)c(OC3CCCC3O)n2)cc1 (single isomer, unassigned) [Example 107a]"
10 to 100,100 to 1000,100 to 1000,100 to 1000,≥ 1000,≥ 1000,,"CN1CCC(NS(=O)(=O)c2ccc(Nc3ncc(Cl)c(OC4CCCC4O)n3)cc2)CC1 (single isomer, unassigned) [Example 139b]"
< 10,10 to 100,< 10,100 to 1000,100 to 1000,10 to 100,,CS(=O)(=O)N1CCC(Nc2ncc(C(F)(F)F)c(OC3CCCCC3)n2)CC1 [Example 127]
< 10,10 to 100,100 to 1000,100 to 1000,100 to 1000,10 to 100,,"NS(=O)(=O)c1ccc(Nc2ncc(C(F)(F)F)c(OC3CCOCC3O)n2)cc1 (single isomer, unassigned) [Example 114a]"
< 10,10 to 100,100 to 1000,10 to 100,10 to 100,10 to 100,,"[2H]C([2H])([2H])NS(=O)(=O)c1ccc(Nc2ncc(CC)c(OC3COCCC3(C)O)n2)cc1 (single isomer, unassigned) [Example 153a]"
< 10,10 to 100,100 to 1000,100 to 1000,100 to 1000,100 to 1000,,"[2H]C([2H])([2H])NS(=O)(=O)c1ccc(Nc2ncc(C(F)(F)F)c(OC3CCCC3O)n2)cc1 (single isomer, unassigned) [Example 109a]"
< 10,10 to 100,10 to 100,10 to 100,100 to 1000,100 to 1000,,"Cn1cc(S(=O)(=O)N2CCC(Nc3ncc(Br)c(OC4CCCCC4O)n3)CC2)cn1 (single isomer, unassigned) [Example 144b]"
< 10,10 to 100,100 to 1000,100 to 1000,100 to 1000,100 to 1000,,"[2H]C([2H])([2H])NS(=O)(=O)c1ccc(Nc2ncc(Cl)c(OC3COCC3(C)O)n2)cc1 (single isomer, unassigned) [Example 140a]"
< 10,10 to 100,100 to 1000,10 to 100,100 to 1000,100 to 1000,,"[2H]C1([2H])CC(O)C(Oc2nc(Nc3ccc(S(=O)(=O)NC([2H])([2H])[2H])cc3)ncc2C(F)(F)F)C1 (single isomer, unassigned) [Example 110a]"
< 10,10 to 100,100 to 1000,10 to 100,100 to 1000,100 to 1000,,"CN1CCC(NS(=O)(=O)c2ccc(Nc3ncc(Cl)c(OC4CCCC4O)n3)cc2)CC1 (single isomer, unassigned) [Example 139a]"
